Measurements reported in PubChem BioAssay AID1508591.

Settings: rat; liver microsomes; pH 7.4; 15.0 min; 1.0 µM
With `CCOC(=O)C1CCN(C(=O)C2(NC(=O)Nc3ccccc3Cl)CCCC2)CC1` the half-life was 1.5 min. Molecule `O=C(NCCCc1ccccc1)c1cccc(-c2cc(O)c3ncccc3c2)c1` has a half-life of 1.65 min. For `NC(=O)C1CCN(c2ncc(-c3ccc(Cl)cc3)s2)CC1`, the half-life was 5.97 min. `CC1Oc2cc3c(-c4c(O)cc(O)c5c(O)c6c(cc45)OC(C)C(C)C6=O)c(O)cc(O)c3c(O)c2C(=O)C1C` (stereo not drawn) gave a half-life greater than 30 min. With `CS(=O)(=O)N1CCN(c2nc(-c3ccc(Br)cc3)cs2)CC1` the half-life was greater than 30 min. For `O=C(CNC12CC3CC(CC(C3)C1)C2)c1ccc(Cl)cc1`, the half-life was 2.2 min. Work on `CCOC(=O)Nc1ccc(NCc2ccc(F)cc2)nc1N` yielded a half-life greater than 30 min. `COc1ncccc1-c1cc2c(ccn2C(C)C)c(C(=O)NCc2c(C)cc(C)[nH]c2=O)n1` gave a half-life of 5.49 min. For `NC(=O)C1CCN(c2ncc(Br)cn2)CC1`, the half-life was greater than 30 min. Molecule `Nc1ncc(S(=O)(=O)N2CCOCC2)s1` has a half-life greater than 30 min. `Cc1ccc(-c2ccc(CNc3nc(-c4ccccc4C(C)C)nc4ccccc34)cc2)cn1` gave a half-life of 8.23 min. For `COc1ccccc1-c1cc2c(ccn2C)c(C(=O)NCC2CCN(C)C(=O)C2)n1` (stereo not drawn), the half-life was greater than 30 min. Molecule `Cc1ccc(S(=O)(=O)Nc2cccnc2C(=O)Nc2nc(-c3ccccc3)cs2)cc1` has a half-life of 4.2 min. In the case of `CCOc1ccccc1C(=O)Nc1cccnc1C(=O)Nc1cccc(S(=O)(=O)C(F)(F)F)c1`, the half-life is reported as greater than 30 min. In the case of `CC/C=C\CC1C(=O)CCC1CC(=O)OC` (stereo not drawn), the half-life is reported as greater than 30 min. With `Cc1ccc(S(=O)(=O)Nc2cnccc2C(=O)Nc2ccc(N3CCOCC3)cc2)cc1` the half-life was 23 min. With `Cc1cc(NS(=O)(=O)c2ccc(NC(=O)Cc3ccc(Cl)c(F)c3)cc2)no1` the half-life was greater than 30 min. Molecule `CCCCCN(CCC12CC3CC(CC(C3)C1)C2)C(=O)NCCCc1ccncc1` has a half-life of 3.7 min. With `CC(Cc1ccc(O)cc1)NCC(O)c1cc(O)cc(O)c1` (stereo not drawn) the half-life was greater than 30 min. In the case of `COc1cc2c(C(=O)N3CCN(c4cccc(C(F)(F)F)c4)CC3)cn(CC(C)C)c(=O)c2cc1OC`, the half-life is reported as 3.15 min. `CC(C)Oc1ccc(CCNC(=O)c2cc3sccc3n2Cc2ccccc2)cc1OC(C)C` gave a half-life of 2.7 min. In the case of `O=C(Nc1ccccc1O)c1ccc(NC(=O)C2CC2)cc1`, the half-life is reported as greater than 30 min. `CNC(=O)Cn1cc(-c2ccc3c(c2)C(F)CC32NC(=O)N(CC(=O)N(Cc3ccc(F)cc3)[C@@H](C)C(F)(F)F)C2=O)cn1` (stereo partly drawn) gave a half-life of 18.9 min. `O=C1Nc2ccccc2C12CC2c1cc(Cl)c(O)c(Cl)c1` (stereo not drawn) gave a half-life of 9.8 min. `CC(C)NC(=O)C1CCN(C(=O)c2cc3sccc3n2Cc2ccc(Cl)cc2)CC1` gave a half-life of 1.05 min. `COc1ccccc1NC(=O)C1=C(C)Nc2c(C(=O)Nc3cccc(C)c3)cnn2C1c1ccccc1Cl` (stereo not drawn) gave a half-life of 2.98 min. `CCOc1cc(CNc2ccc(O)cc2)ccc1OCc1ccc(Cl)cc1` gave a half-life of 3.84 min. Molecule `CNc1oc(-c2cccc(-c3ccccc3)c2)nc1C#N` has a half-life of 12 min. Work on `Nc1scc2c(C(=O)O)nn(-c3ccccc3)c(=O)c12` yielded a half-life greater than 30 min. For `Cc1ccc(-c2cc(C(=O)Nc3ccc(-c4noc(=O)[nH]4)cc3)c3ccccc3n2)cc1C`, the half-life was greater than 30 min. `COc1ccc(-n2nc(C3CCCN(C(=O)c4ccccc4)C3)[nH]c2=O)cc1` (stereo not drawn) gave a half-life greater than 30 min. `Cc1nc2sccn2c(=O)c1S(=O)(=O)Nc1ccc(N2CCN(S(C)(=O)=O)CC2)cc1` gave a half-life greater than 30 min. Molecule `CNc1nccc(-c2cccc3ccccc23)n1` has a half-life of 7.7 min. `COc1ccc(C2Nc3ccccc3C(=O)N2Cc2ccco2)cc1` (stereo not drawn) showed a half-life of 1.6 min. Work on `Fc1ccc(-c2ccc(Nc3nc(-c4ccncc4)nc4ccccc34)cc2F)c(F)c1` yielded a half-life of 23 min. Work on `Cc1ccc(S(=O)(=O)Nc2cnccc2C(=O)Nc2nc(-c3ccccc3Cl)cs2)cc1` yielded a half-life of 13 min. In the case of `Cc1cccc([C@H]2[C@@H]3C=CC[C@@H](C)[C@@H]3C(=O)N2Cc2ccccc2)c1`, the half-life is reported as 1.4 min. Molecule `COc1cccc(CNc2ccc(S(=O)(=O)Nc3cccc(-c4ccccc4)c3)cc2)c1O` has a half-life of 17 min. `COc1ccc(CCNC(=O)Cn2c(=O)c3cccn3c3ccc(F)cc32)cc1OC` showed a half-life of 1.81 min. `Cc1ccc(S(=O)(=O)Nc2ccc(C(=O)Nc3nc(-c4ccccc4)cs3)cc2Cl)cc1` showed a half-life of 4 min. `Oc1ccc(CNc2cccc(F)c2F)c2cccnc12` gave a half-life of 6.35 min. `COc1cccc(NC(=O)c2cccc3c(=O)c4c([nH]c23)CCCC4)c1` gave a half-life of 16.3 min. For `COC(=O)c1ccc([C@H]2c3[nH]c4ccccc4c3C[C@H](C(=O)OC)N2C(=O)CCl)cc1`, the half-life was 4.02 min. `Cc1ccc(S(=O)(=O)Nc2ccncc2C(=O)Nc2nc(-c3ccccc3)cs2)cc1` gave a half-life greater than 30 min. With `Cc1ccc(S(=O)(=O)Nc2ccccc2C(=O)Nc2ccc(-c3ccccc3)cn2)cc1` the half-life was 4.9 min. Molecule `CS(=O)(=O)c1ccc(-c2csc(N3CCC(C(N)=O)CC3)n2)cc1` has a half-life greater than 30 min. `O=C(Nc1cc(C(F)(F)F)ccc1N1CCOCC1)c1n[nH]c(=O)c2ccccc12` gave a half-life greater than 30 min. In the case of `CN(C)CCNC(=O)c1nc(-c2ccccc2)cc2[nH]ccc12`, the half-life is reported as 1.92 min. Work on `CCn1cc(C(=O)O)c(=O)c2cnc(N3CCN(C(=S)Nc4ccccc4)CC3)nc21` yielded a half-life greater than 30 min. `O=c1[nH]c(C2CCN(CC3CCCCC3)CC2)nn1Cc1ccccc1` showed a half-life of 25.3 min. For `Cc1cc(C)c(C(=O)Nc2cccc([S+](=O)([O-])N3CCCC3)c2)[nH]1`, the half-life was 6.5 min. In the case of `COc1ccnc(NC(=S)N2CCN(c3ncc(C(F)(F)F)cc3Cl)CC2)c1`, the half-life is reported as greater than 30 min. `CCCC1=Nc2cc(C(=O)NC3CCCC3)ccc2Sc2ccc(C)cc21` showed a half-life of 1.41 min. Molecule `Cc1noc(C)c1-c1ccc(-c2cc(C(N)=O)c(NC(N)=O)s2)c(O[C@H]2CCNC2)c1` has a half-life greater than 30 min. `Cc1ccccc1C(=O)N1CCc2cc(-c3nc(NC(=O)Cc4ccccc4)sc3C)ccc21` showed a half-life of 24 min. In the case of `Cc1cc(-c2nnc3n2CCCCC3)c(C)n1-c1ccc(C#N)cc1`, the half-life is reported as 3.6 min. Molecule `COc1ccccc1C(=O)Nc1ccccc1C(=O)Nc1cccc(C(F)(F)F)c1` has a half-life greater than 30 min. With `CCCCCCCCc1ccc(CCC(N)(CO)CO)cc1` the half-life was greater than 30 min. For `CCOc1ccc(CCNC(=O)c2cc3sccc3n2C)cc1OCC`, the half-life was 1.6 min. `Cc1cc(C)nc(NC(=S)N2CCN(c3cc(C(F)(F)F)nc4ccccc34)CC2)c1` gave a half-life greater than 30 min. Work on `COc1ccc(C2=Nn3c([n+](C)c4ccccc43)SC2)cc1` yielded a half-life greater than 30 min. Work on `CCOC(=O)C1CCN(c2nc(-c3ccc(Br)cc3)cs2)CC1` yielded a half-life of 2.19 min. In the case of `Cc1c(C(=O)NN2CCCCC2)nn(-c2ccc(Cl)cc2Cl)c1-c1ccc(Cl)cc1`, the half-life is reported as 5.9 min. Molecule `Cc1nc(Nc2n[nH]c3c2CN(C(=O)N[C@H](CN(C)C)c2ccccc2)C3(C)C)c2sccc2n1` has a half-life of 21.9 min. With `O=S(=O)(Nc1ccc(S(=O)(=O)Nc2nccs2)cc1)c1ccc2ccccc2c1` the half-life was greater than 30 min. `COc1cccc(CNC(=O)CCCn2nc(C)c3c(C)n(-c4ccc(C)cc4)nc3c2=O)c1OC` showed a half-life of 1.07 min. With `Nc1c(C(=O)N2CCCCC2)sc(=S)n1-c1ccccc1` the half-life was 6.6 min. Work on `O=S(=O)(Nc1nccs1)c1ccc(Nc2nc(-c3ccc(F)cc3)cs2)cc1` yielded a half-life greater than 30 min. For `CCOc1ccc(CCNC(=O)c2ccc(C(=O)c3ccccc3)cc2)cc1OCC`, the half-life was 2.8 min. Molecule `NC(=O)c1cccc(-c2cc(Nc3ccc(OC(F)(F)F)cc3)ncn2)c1` has a half-life greater than 30 min. `CC(C)C[C@H]1C(=O)N2CCC[C@H]2[C@]2(O)O[C@](NC(=O)[C@@H]3C=C4c5cccc6[nH]c(Br)c(c56)C[C@H]4N(C)C3)(C(C)C)C(=O)N12` gave a half-life of 1.59 min. With `Cc1nnc(-c2ccccc2C(C)C)nc1NCc1ccc(-c2cccnc2)cc1` the half-life was 5.8 min. `O=C1Nc2cccc(Cl)c2/C1=C\c1cc(Cl)c(O)c(Cl)c1` gave a half-life greater than 30 min. Work on `Cc1ccc(S(=O)(=O)Nc2cnccc2C(=O)Nc2ccc(-c3nn[nH]n3)cc2)cc1` yielded a half-life greater than 30 min. In the case of `Cn1nnnc1Sc1ncnc2scc(-c3ccc(F)cc3)c12`, the half-life is reported as 10.7 min. `COc1ccc(NC(=O)c2[nH]c(C)c(C(C)=O)c2C)cc1[S+](=O)([O-])Nc1ccccc1C#N` showed a half-life greater than 30 min. With `CCOC(=O)c1[nH]c(C)c(CCC(=O)N2CCN(c3cc(C)ccc3C)CC2)c1C` the half-life was 2.27 min. Molecule `O=C(NCc1ccccc1)C1CCN(c2nc(-c3ccc(Br)cc3)cs2)CC1` has a half-life of 1.75 min. Work on `N#Cc1nc(-c2cccc3ccccc23)oc1NC1CNC1` yielded a half-life greater than 30 min. Work on `CCc1ccc(NC(=O)c2[nH]c(C)c(C(C)=O)c2C)cc1S(=O)(=O)Nc1ccc(Br)cc1` yielded a half-life of 23 min. Work on `Cn1c(=O)c2[nH]c(=O)[nH]c2n(C)c1=O` yielded a half-life greater than 30 min. `COc1ccccc1-c1[nH]nc2ncc(-c3ccc(C)cc3)nc12` showed a half-life of 3 min. Work on `O=C(Nc1ccc([N+](=O)[O-])cc1Cl)c1cc(Cl)ccc1O` yielded a half-life greater than 30 min. For `O=C(Nc1ncc(Cc2ccc(C(F)(F)F)cc2)s1)c1cnc(-c2ccccc2)o1`, the half-life was greater than 30 min. `CCCCOc1ccc(C(=O)N2CCC(c3n[nH]c(=O)n3-c3ccc(C)cc3)CC2)cc1` showed a half-life of 5.43 min. In the case of `NC(=O)C1CCN(c2nc(-c3ccccc3F)cs2)CC1`, the half-life is reported as 3.04 min. `CNC(=O)C1CCN(c2nc(-c3ccc(Br)cc3)cs2)CC1` showed a half-life of 26.2 min. `O=C(Nc1nc(-c2ccccc2)cs1)c1ccncc1NS(=O)(=O)c1ccc(Cl)cc1` gave a half-life of 18.2 min. For `Nc1nc2c(s1)C(c1c(Cl)cccc1Cl)CC(=O)N2` (stereo not drawn), the half-life was 23.8 min. Work on `Cc1cnc(-c2ccccc2C2CC2)nc1NCc1ccc(-c2cccnc2)cc1` yielded a half-life of 6.2 min. With `COc1ccc(CCN2C(=O)N(c3ccc(F)cc3)C(=O)C2CC(=O)Nc2ccc(F)c(F)c2)cc1` (stereo not drawn) the half-life was 4.04 min. `CCOc1ccc(CCNC(=O)c2cc3sccc3n2CCN(C)C)cc1OCC` gave a half-life of 1.6 min. For `Cc1ccc2c(c1)N(S(=O)(=O)c1cc(-c3onc(C)c3C)ccc1C)CCO2`, the half-life was 1.56 min. `Cc1sc(NC(=O)Cc2ccc3c(c2)OCO3)nc1-c1ccc2c(c1)CCN2C(=O)c1ccccc1C(F)(F)F` gave a half-life greater than 30 min. In the case of `Cc1cc(C)nc(NC(=S)N2CCN(c3cccc(OC(F)F)c3)CC2)c1`, the half-life is reported as greater than 30 min. `CCOc1ccccc1C(=O)Nc1ccncc1C(=O)Nc1cccc(S(=O)(=O)C(F)(F)F)c1` gave a half-life greater than 30 min. In the case of `NC(=O)C1CCN(c2nc(-c3cccc(Br)c3)cs2)CC1`, the half-life is reported as 1.77 min. Work on `Cc1ccc(C(=O)Nc2nc3nc(C)cc(=O)n3[nH]2)cc1` yielded a half-life greater than 30 min. With `O=S(=O)(c1ccccc1)N1CCCCC1CCc1ccccc1` (stereo not drawn) the half-life was 2.32 min. In the case of `Fc1cc(Nc2nc(-c3ccncc3)nc3ccccc23)ccc1-c1ccncc1`, the half-life is reported as 13 min. `Cc1ccc(S(=O)(=O)Nc2cccc(C(=O)Nc3nc(-c4ccccc4)cs3)c2Cl)cc1` gave a half-life of 15 min. Molecule `O=C(N/N=C/c1ccc(O)c(O)c1)c1cc2ccccc2cc1O` has a half-life of 15.1 min. For `CCC(C)N(C)C(=O)c1cc2ccccc2c(-c2ccccc2Cl)n1` (stereo not drawn), the half-life was 3.84 min.
